Experimental findings from EP1247803A2, “Indolinone compounds suitable for modulation of protein kinases” (Sugen, Inc., priority 1996, dated 1998) are described below.

Each structure is given as a SMILES string.

Experiment [1] has as its target T1, FLK-1 receptor (Mus musculus, UniProt P35918).
T1 construct: expressed in transfected cells; host or cells: NIH3T3 C7#3
Nature of the experiment: FLK-1 ELISA (kinase activity of the FLK-1 receptor in FLK-1/NIH3T3 cells, VEGF stimulated). Format: cell-based. The method in brief:
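An ELISA using affinity-purified rabbit anti-FLK-1 antiserum on anti-rabbit IgG-coated plates measured VEGF-stimulated FLK-1 kinase activity. NIH3T3 C7#3 cells carrying FLK-1 were serum-starved (0.1% FBS) overnight, then exposed to compound (final 1:200 dilution, 0.5% DMSO) for two hours at 37 °C.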
On the technique in general: In an ELISA, binding on a coated surface is turned into a signal by an enzyme label.

The target in experiment [2] is PDGF-R (Homo sapiens, UniProt P09619). Nature of the experiment: PDGF-R ELISA. The format is cell-based. An excerpt: A PDGF-R ELISA is described in International Patent Publication No. WO 96/40116, published December 19, 1996 by Tang et al.
Sequence of PDGF-R (P09619 33-1106, species assumed): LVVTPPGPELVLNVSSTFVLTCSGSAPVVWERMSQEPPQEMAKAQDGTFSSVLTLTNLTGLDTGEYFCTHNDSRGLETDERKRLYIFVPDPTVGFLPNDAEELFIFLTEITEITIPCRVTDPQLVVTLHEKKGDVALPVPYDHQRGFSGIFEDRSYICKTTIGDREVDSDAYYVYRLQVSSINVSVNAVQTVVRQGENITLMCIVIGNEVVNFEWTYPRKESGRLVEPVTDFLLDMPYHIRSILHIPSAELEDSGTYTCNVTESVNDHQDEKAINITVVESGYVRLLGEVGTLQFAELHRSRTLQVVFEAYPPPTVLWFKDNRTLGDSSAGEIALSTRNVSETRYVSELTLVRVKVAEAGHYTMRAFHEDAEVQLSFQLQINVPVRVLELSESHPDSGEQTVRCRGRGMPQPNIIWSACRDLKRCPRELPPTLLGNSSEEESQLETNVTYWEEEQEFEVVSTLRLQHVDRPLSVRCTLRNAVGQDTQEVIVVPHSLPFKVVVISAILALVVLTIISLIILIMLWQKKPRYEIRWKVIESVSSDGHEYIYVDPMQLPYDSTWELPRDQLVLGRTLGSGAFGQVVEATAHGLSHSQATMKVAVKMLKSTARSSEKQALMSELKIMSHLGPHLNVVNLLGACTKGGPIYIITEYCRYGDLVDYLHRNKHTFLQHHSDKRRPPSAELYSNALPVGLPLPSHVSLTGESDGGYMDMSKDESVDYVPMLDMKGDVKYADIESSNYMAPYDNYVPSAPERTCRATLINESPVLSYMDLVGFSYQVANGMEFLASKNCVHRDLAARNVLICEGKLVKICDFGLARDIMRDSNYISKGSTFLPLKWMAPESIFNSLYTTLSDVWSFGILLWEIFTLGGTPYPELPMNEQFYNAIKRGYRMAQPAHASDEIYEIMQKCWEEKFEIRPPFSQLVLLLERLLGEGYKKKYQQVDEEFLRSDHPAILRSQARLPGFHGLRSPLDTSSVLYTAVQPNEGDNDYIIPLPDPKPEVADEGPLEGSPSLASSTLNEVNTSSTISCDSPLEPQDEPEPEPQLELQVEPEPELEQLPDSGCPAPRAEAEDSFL

T1 sequence (P35918 20-1345): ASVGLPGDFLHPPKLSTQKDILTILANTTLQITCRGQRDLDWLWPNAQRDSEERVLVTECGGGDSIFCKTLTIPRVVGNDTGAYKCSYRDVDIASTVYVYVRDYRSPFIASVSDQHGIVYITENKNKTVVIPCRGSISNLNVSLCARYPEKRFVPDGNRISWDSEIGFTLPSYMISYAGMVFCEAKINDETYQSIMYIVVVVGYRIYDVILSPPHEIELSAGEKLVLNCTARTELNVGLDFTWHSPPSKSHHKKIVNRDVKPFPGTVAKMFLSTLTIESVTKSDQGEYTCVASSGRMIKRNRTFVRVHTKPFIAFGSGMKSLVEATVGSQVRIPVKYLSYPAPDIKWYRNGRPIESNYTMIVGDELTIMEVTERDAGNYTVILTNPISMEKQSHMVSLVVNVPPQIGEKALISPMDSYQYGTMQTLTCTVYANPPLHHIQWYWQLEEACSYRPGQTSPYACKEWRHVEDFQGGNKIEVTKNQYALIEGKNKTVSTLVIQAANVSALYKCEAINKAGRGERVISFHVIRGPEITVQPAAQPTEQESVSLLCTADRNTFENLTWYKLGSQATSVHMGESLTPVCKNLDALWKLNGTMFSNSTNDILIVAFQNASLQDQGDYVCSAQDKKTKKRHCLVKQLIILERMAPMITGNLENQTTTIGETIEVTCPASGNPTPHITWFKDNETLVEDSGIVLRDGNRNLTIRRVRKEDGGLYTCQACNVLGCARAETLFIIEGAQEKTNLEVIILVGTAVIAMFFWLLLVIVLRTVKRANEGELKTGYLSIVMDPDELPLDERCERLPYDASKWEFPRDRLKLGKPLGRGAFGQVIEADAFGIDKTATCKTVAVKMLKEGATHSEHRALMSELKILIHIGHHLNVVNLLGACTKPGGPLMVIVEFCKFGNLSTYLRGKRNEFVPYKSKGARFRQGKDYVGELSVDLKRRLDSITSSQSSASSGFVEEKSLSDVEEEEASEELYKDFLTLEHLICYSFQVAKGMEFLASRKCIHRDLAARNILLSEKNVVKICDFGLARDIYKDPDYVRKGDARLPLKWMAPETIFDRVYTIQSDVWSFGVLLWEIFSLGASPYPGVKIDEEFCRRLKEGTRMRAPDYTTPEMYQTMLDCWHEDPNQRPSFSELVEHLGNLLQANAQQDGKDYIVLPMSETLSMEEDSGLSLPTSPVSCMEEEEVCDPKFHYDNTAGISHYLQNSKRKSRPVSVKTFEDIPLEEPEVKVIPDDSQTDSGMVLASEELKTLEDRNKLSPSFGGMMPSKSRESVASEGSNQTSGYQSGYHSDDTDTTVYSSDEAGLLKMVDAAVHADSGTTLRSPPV

As for `CNS(=O)(=O)c1ccc2c(c1)C(=Cc1[nH]c(C)c(Br)c1Br)C(=O)N2` [10717/D11], the “Fik Kinase %Inhibition” value in experiment [1] is on record as 11.6%.

As to `CCOc1ccccc1C=C1C(=O)Nc2ccc(S(=O)(=O)Nc3ccc(C(F)(F)F)cc3)cc21` [10717/E02], in experiment [1], the “Fik Kinase %Inhibition” value worked out at 17.9%.

On to `O=C1Nc2ccc(S(=O)(=O)Nc3ccc(C(F)(F)F)cc3)cc2C1=Cc1cccs1` [10717/E03], for which, in experiment [1], the “Fik Kinase %Inhibition” value is reported as 19.0%.

Take `Cn1cccc1C=C1C(=O)Nc2ccc(S(=O)(=O)Nc3ccc(C(F)(F)F)cc3)cc21` [10717/E04]: the “Fik Kinase %Inhibition” value in experiment [1] was 6.1%.

Take `O=C1Nc2ccc(S(=O)(=O)Nc3ccc(C(F)(F)F)cc3)cc2C1=Cc1ccc(F)cc1` [10717/E05]: the “Fik Kinase %Inhibition” value in experiment [1] is recorded as 13.2%.

In the case of `O=C1Nc2ccc(S(=O)(=O)Nc3ccc(C(F)(F)F)cc3)cc2C1=Cc1c[nH]c2ccccc12` [10717/E06], the “Fik Kinase %Inhibition” value in experiment [1] worked out at 7.5%.

On to `Cc1ccc(C=C2C(=O)Nc3ccc(S(=O)(=O)Nc4ccc(C(F)(F)F)cc4)cc32)s1` [10717/E07], for which the “Fik Kinase %Inhibition” value in experiment [1] turned out to be 15.3%.

Turning to `O=C1Nc2ccc(S(=O)(=O)Nc3ccc(C(F)(F)F)cc3)cc2C1=Cc1ccc(Br)cc1` [10717/E08], in experiment [1], the “Fik Kinase %Inhibition” value came out at 13.2%.

Consider `CC(C)(C)c1cc(C=C2C(=O)Nc3ccc(CCCl)cc32)cc([N+](=O)[O-])c1O` [10722/G02], for which, in experiment [1], the “Fik Kinase %Inhibition” value was determined as 15.1%. Further, the “PDGF Kinase %Inhibition” value in experiment [2] is on record as 14.6%.

With `O=C1Nc2ccc(CCCl)cc2C1=Cc1c(O)cc(O)cc1O` [10722/G03], the “Fik Kinase %Inhibition” value in experiment [1] is 5.3%. Also, the “PDGF Kinase %Inhibition” value in experiment [2] is -3.7%.

As for `O=C1Nc2ccc(CCCl)cc2C1=Cc1ccc([N+](=O)[O-])s1` [10722/G04], the “Fik Kinase %Inhibition” value in experiment [1] amounted to 7.2%. Also, in experiment [2], the “PDGF Kinase %Inhibition” value is recorded as 11.7%.

Take `O=C1Nc2ccc(CCCl)cc2C1=Cc1ccc(C(=O)O)cc1` [10722/G05]: the “Fik Kinase %Inhibition” value in experiment [1] is given as 10.8%. Also, the “PDGF Kinase %Inhibition” value in experiment [2] is recorded as -6.0%.

With `O=C1Nc2ccc(CCCl)cc2C1=Cc1ccc(F)cc1F` [10722/G06], the “Fik Kinase %Inhibition” value in experiment [1] is 7.4%. In experiment [2], the “PDGF Kinase %Inhibition” value is -6.0%.

With `Cc1cc(C=C2C(=O)Nc3ccc(CCCl)cc32)cc(C)c1O` [10722/G07], the “Fik Kinase %Inhibition” value in experiment [1] worked out at 8.0%. For the same compound, in experiment [2], the “PDGF Kinase %Inhibition” value was -3.7%.

With `CC(C)(C)c1cc(C=C2C(=O)Nc3ccc(CCCl)cc32)cc(Cl)c1O` [10722/G08], the “Fik Kinase %Inhibition” value in experiment [1] amounted to 8.2%. The “PDGF Kinase %Inhibition” value in experiment [2] came to 12.9%.

`O=C1Nc2ccc(CCCl)cc2C1=Cc1csc([N+](=O)[O-])c1` [10722/G09]: in experiment [1], the “Fik Kinase %Inhibition” value worked out at 6.1%. For the same compound, the “PDGF Kinase %Inhibition” value in experiment [2] was determined as 0.9%.

With `CCCCN(CCCC)c1ccc(C=C2C(=O)Nc3ccc(CCCl)cc32)cc1` [10722/G10], the “Fik Kinase %Inhibition” value in experiment [1] is on record as -1.7%. The “PDGF Kinase %Inhibition” value in experiment [2] worked out at 16.9%.

For the compound `O=C1Nc2ccc(CCCl)cc2C1=Cc1ccc(C(F)(F)F)cc1` [10722/G11], the “Fik Kinase %Inhibition” value in experiment [1] is listed as 0.6%. Further, in experiment [2], the “PDGF Kinase %Inhibition” value turned out to be 0.3%.

`O=C1Nc2c(Br)cc(Br)cc2C1=Cc1ccc(O)c(O)c1O` [10723/A02]: the “Fik Kinase %Inhibition” value in experiment [1] is on record as -5.5%. In addition, in experiment [2], the “PDGF Kinase %Inhibition” value came to 64.4%.

For the compound `COc1cccc(C=C2C(=O)Nc3c(Br)cc(Br)cc32)c1O` [10723/A03], the “Fik Kinase %Inhibition” value in experiment [1] worked out at 1.2%. Further, the “PDGF Kinase %Inhibition” value in experiment [2] stood at 11.7%.

Take `O=C1Nc2c(Br)cc(Br)cc2C1=Cc1cc(O)c(O)c(Br)c1` [10723/A04]: in experiment [1], the “Fik Kinase %Inhibition” value was 27.2%. In addition, the “PDGF Kinase %Inhibition” value in experiment [2] is recorded as 13.1%.

For the compound `CC(=O)Oc1ccc(C=C2C(=O)Nc3c(Br)cc(Br)cc32)cc1OC(C)=O` [10723/A05], the “Fik Kinase %Inhibition” value in experiment [1] is listed as -17.8%. For the same compound, the “PDGF Kinase %Inhibition” value in experiment [2] is 17.9%.

Turning to `Cc1cc(C=C2C(=O)Nc3c(Br)cc(Br)cc32)ccc1O` [10723/A06], in experiment [1], the “Fik Kinase %Inhibition” value is on record as 8.6%. In addition, in experiment [2], the “PDGF Kinase %Inhibition” value was determined as 43.6%.

As to `O=C1Nc2c(Br)cc(Br)cc2C1=Cc1ccccc1Br` [10723/A07], the “Fik Kinase %Inhibition” value in experiment [1] is recorded as -6.1%. In addition, the “PDGF Kinase %Inhibition” value in experiment [2] came to 22.1%.

Take `O=C1Nc2c(Br)cc(Br)cc2C1=Cc1ccc(O)cc1O` [10723/A08]: in experiment [1], the “Fik Kinase %Inhibition” value is -12.9%. Besides, the “PDGF Kinase %Inhibition” value in experiment [2] is reported as 29.7%.

`COc1ccc(C=C2C(=O)Nc3c(Br)cc(Br)cc32)c(O)c1` [10723/A09]: in experiment [1], the “Fik Kinase %Inhibition” value is -1.0%. In experiment [2], the “PDGF Kinase %Inhibition” value is given as 42.9%.

Take `O=C1Nc2c(Br)cc(Br)cc2C1=Cc1cccc(Br)c1` [10723/A10]: the “Fik Kinase %Inhibition” value in experiment [1] was -3.1%. For the same compound, the “PDGF Kinase %Inhibition” value in experiment [2] stood at 34.6%.

Take `CC(C)(C)c1cc(C=C2C(=O)Nc3c(Br)cc(Br)cc32)c(O)c(C(C)(C)C)c1` [10723/A11]: in experiment [1], the “Fik Kinase %Inhibition” value is 42.9%. Moreover, in experiment [2], the “PDGF Kinase %Inhibition” value is 41.5%.

Consider `O=C1Nc2ccc(I)cc2C1=Cc1ccc(O)c(O)c1O` [10723/B02], for which the “Fik Kinase %Inhibition” value in experiment [1] is listed as -0.3%. Further, the “PDGF Kinase %Inhibition” value in experiment [2] is reported as 29.0%.

As for `COc1cccc(C=C2C(=O)Nc3ccc(I)cc32)c1O` [10723/B03], in experiment [1], the “Fik Kinase %Inhibition” value was 7.1%. The “PDGF Kinase %Inhibition” value in experiment [2] was 14.5%.

As for `O=C1Nc2ccc(I)cc2C1=Cc1cc(O)c(O)c(Br)c1` [10723/B04], the “Fik Kinase %Inhibition” value in experiment [1] is recorded as 18.7%. Moreover, the “PDGF Kinase %Inhibition” value in experiment [2] is 40.1%.

For the compound `CC(=O)Oc1ccc(C=C2C(=O)Nc3ccc(I)cc32)cc1OC(C)=O` [10723/B05], in experiment [1], the “Fik Kinase %Inhibition” value was -15.4%. Moreover, the “PDGF Kinase %Inhibition” value in experiment [2] is on record as 15.2%.

`Cc1cc(C=C2C(=O)Nc3ccc(I)cc32)ccc1O` [10723/B06]: the “Fik Kinase %Inhibition” value in experiment [1] is on record as 31.8%. Moreover, in experiment [2], the “PDGF Kinase %Inhibition” value turned out to be 58.8%.

With `O=C1Nc2ccc(I)cc2C1=Cc1ccccc1Br` [10723/B07], the “Fik Kinase %Inhibition” value in experiment [1] was found to be 6.5%. For the same compound, the “PDGF Kinase %Inhibition” value in experiment [2] came out at 24.9%.

Regarding `O=C1Nc2ccc(I)cc2C1=Cc1ccc(O)cc1O` [10723/B08], the “Fik Kinase %Inhibition” value in experiment [1] is given as 1.0%. For the same compound, the “PDGF Kinase %Inhibition” value in experiment [2] is on record as 56.1%.

Consider `COc1ccc(C=C2C(=O)Nc3ccc(I)cc32)c(O)c1` [10723/B09], for which, in experiment [1], the “Fik Kinase %Inhibition” value is 2.7%. The “PDGF Kinase %Inhibition” value in experiment [2] is 27.6%.

Consider `O=C1Nc2ccc(I)cc2C1=Cc1cccc(Br)c1` [10723/B10], for which the “Fik Kinase %Inhibition” value in experiment [1] is 5.8%. In addition, in experiment [2], the “PDGF Kinase %Inhibition” value amounted to 17.2%.

Consider `CC(C)(C)c1cc(C=C2C(=O)Nc3ccc(I)cc32)c(O)c(C(C)(C)C)c1` [10723/B11], for which the “Fik Kinase %Inhibition” value in experiment [1] came out at 6.3%. Further, in experiment [2], the “PDGF Kinase %Inhibition” value came to 22.8%.

Take `Cc1c(Br)ccc2c1C(=Cc1ccc(O)c(O)c1O)C(=O)N2` [10723/C02]: the “Fik Kinase %Inhibition” value in experiment [1] worked out at 9.6%. In addition, the “PDGF Kinase %Inhibition” value in experiment [2] was found to be 39.4%.

On to `COc1cccc(C=C2C(=O)Nc3ccc(Br)c(C)c32)c1O` [10723/C03], for which, in experiment [1], the “Fik Kinase %Inhibition” value is -3.1%. In addition, the “PDGF Kinase %Inhibition” value in experiment [2] is 42.9%.

Consider `Cc1c(Br)ccc2c1C(=Cc1cc(O)c(O)c(Br)c1)C(=O)N2` [10723/C04], for which the “Fik Kinase %Inhibition” value in experiment [1] amounted to 8.8%. In experiment [2], the “PDGF Kinase %Inhibition” value amounted to 36.7%.

For the compound `CC(=O)Oc1ccc(C=C2C(=O)Nc3ccc(Br)c(C)c32)cc1OC(C)=O` [10723/C05], in experiment [1], the “Fik Kinase %Inhibition” value came to 5.6%. The “PDGF Kinase %Inhibition” value in experiment [2] was determined as 22.8%.
